The record followed here is US7989462B2, “4-arylamin-or-4-heteroarylamino-quinazolines and analogs as activators of caspases and inducers of apoptosis and the use thereof” (Myrexis, Inc., priority 2003, dated 2011).

The term EC50 denotes the concentration that produces a half-maximal response.

Some results are limits rather than exact numbers.

This assay concerns T-47D. The experiment in a line: Caspase cascade activation in T-47D solid tumor cells (fluorogenic N-(Ac-DEVD)-N'-ethoxycarbonyl-R110 substrate). The class given is cell-based, Human. The following applies: T-47D (24 hr); for EC50: Homo sapiens, T47D, read-out: Caspase Potency EC50; for Caspase Activity Ratio: ratio of net RFU of test compound to that of control samples. The method, then:
Human breast cancer cell lines T-47D and DLD-1 were grown according to media component mixtures designated by American Type Culture Collection+10% FCS (Invitrogen Corporation), in a 5% CO2-95% humidity incubator at 37° C. T-47D and DLD-1 cells were maintained at a cell density between 50 and 80% confluency at a cell density of 0.1 to 0.6×10^6 cells/mL. Cells were harvested at 600×g and resuspended at 0.65×10^6 cells/mL into appropriate media+10% FCS. An aliquot of 22.5 μL of cells was added to a well of a 384-well microtiter plate containing 2.5 μL of a 10% DMSO in RPMI-1640 media solution containing 0.16 to 100 μM of (2-chloro-quinazolin-4-yl)-(4-dimethylaminophenyl)-methylamine or other test compound (0.016 to 10 μM final). An aliquot of 22.5 μL of cells was added to a well of a 384-well microtiter plate containing 2.5 μL of a 10% DMSO in RPMI-1640 media solution without test compound as the control sample. […] After incubation, the samples were removed from the incubator and 25 μL of a solution containing 14 μM of N-(Ac-DEVD)-N′-ethoxycarbonyl-R110 fluorogenic substrate (Cytovia, Inc.; WO99/18856), 20% sucrose (Sigma), 20 mM DTT (Sigma), 200 mM NaCl (Sigma), 40 mM Na PIPES buffer pH 7.2 (Sigma), and 500 μg/mL lysolecithin (Calbiochem) was added. The samples were mixed by agitation and incubated at room temperature. Using a fluorescent plate reader (Model SPECTRAfluor Plus, Tecan), an initial reading (T=0) was made approximately 1-2 min after addition of the substrate solution, employing excitation at 485 nm and emission at 530 nm, to determine the background fluorescence of the control sample. After the 3 h incubation, the samples were read for fluorescence as above (T=3 h).
The Relative Fluorescence Unit values (RFU) were used to calculate the sample readings as follows: RFU(T=3h)−Control RFU(T=0)=Net RFU(T=3h)
The activity of caspase cascade activation was determined by the ratio of the net RFU value for (2-chloro-quinazolin-4-yl)-(4-dimethylaminophenyl)-methylamine or other test compounds to that of control samples. The EC50 (nM) was determined by a sigmoidal dose-response calculation (Prism 3.0, GraphPad Software Inc.).

With `CC(=O)Nc1ccc(N(C)c2nc(C)nc3ccccc23)cc1` [Example 1, (4-Acetamido-phenyl)-(2-methyl-quinazolin-4-yl)-methylamine], the EC50 was 47 nM and the “Caspase Activity Ratio” value worked out at 8.1.

On to `CSc1ccc(N(C)c2nc(C)nc3ccccc23)cc1` [Example 21, (4-Methylthio-phenyl)-(2-methyl-quinazolin-4-yl)-methylamine], for which the concentration for a half-maximal effect (EC50) came out at 4 nM and the “Caspase Activity Ratio” value came to 7.5.

As to `COc1ccc(N(C)c2nc(C)nc3ccccc23)cc1OC` [Example 25, (3,4-Dimethoxy-phenyl)-(2-methyl-quinazolin-4-yl)-methylamine], the EC50 worked out at 9 nM and the “Caspase Activity Ratio” value was found to be 10.2.

Take `COc1ccc(N(C)c2nc(C)nc3ccc([N+](=O)[O-])cc23)cc1OC` [Example 36, (3,4-Dimethoxy-phenyl)-(2-methyl-6-nitro-quinazolin-4-yl)-methylamine]: the EC50 was found to be 1870 nM and the “Caspase Activity Ratio” value came to 4.0.

With `Cc1nc(N(C)c2ccc(N(C)C)cc2)c2cc(N)ccc2n1` [Example 12, (6-Amino-2-methyl-quinazolin-4-yl)-(4-dimethylaminophenyl)-methylamine], the concentration giving a half-maximal response (EC50) was 33 nM and the “Caspase Activity Ratio” value worked out at 3.8.

Take `COc1ccc(N(C)c2nc(N(C)C)nc3ccc(N)cc23)cc1` [Example 18, (6-Amino-2-dimethylamino-quinazolin-4-yl)-(4-methoxyphenyl)-methylamine]: the concentration giving a half-maximal response (EC50) is 221 nM and the “Caspase Activity Ratio” value worked out at 4.7.

On to `CNc1ccc(N(C)c2nc(C)nc3ccccc23)cc1` [Example 7, (2-Methyl-quinazolin-4-yl)-(4-methylamino-phenyl)-methylamine], for which the EC50 was determined as 18 nM and the “Caspase Activity Ratio” value worked out at 3.4.

For `CNc1nc(N(C)c2ccc(OC)cc2)c2cc(N)ccc2n1` [Example 19, (6-Amino-2-methylamino-quinazolin-4-yl)-(4-methoxyphenyl)-methylamine], the EC50 was 214 nM and the “Caspase Activity Ratio” value is 4.3.

In the case of `COc1ccc(CNc2nc(N(C)c3ccc(OC)cc3)c3ccccc3n2)cc1` [Example 9], the EC50 was determined as 258 nM and the “Caspase Activity Ratio” value was 5.6.

Regarding `COc1ccc(Nc2ncnc3ccccc23)cc1OC` [Example 35, (3,4-Dimethoxy-phenyl)-(quinazolin-4-yl)-amine], the EC50 was more than 10000 nM and the “Caspase Activity Ratio” value was found to be 1.0.

In the case of `COc1ccc(Nc2nc(C)nc3ccc([N+](=O)[O-])cc23)cc1OC` [Example 34, (3,4-Dimethoxy-phenyl)-(2-methyl-6-nitro-quinazolin-4-yl)-amine], the EC50 is more than 10000 nM and the “Caspase Activity Ratio” value was 1.1.

Regarding `COc1ccc(N(C)c2nc(C)nc3ccc(N(C)C(C)=O)cc23)cc1` [Example 40, (6-N-methyl-acetamido-2-methyl-quinazolin-4-yl)-(4-methoxy-phenyl)-methylamine], the EC50 was 290 nM and the “Caspase Activity Ratio” value is 2.7.

Take `COC(=O)Nc1ccc2nc(C)nc(N(C)c3ccc(OC)cc3)c2c1` [Example 33, (6-methoxycarbonylamino-2-methyl-quinazolin-4-yl)-(4-methoxy-phenyl)-methylamine]: the half-maximal effective concentration (EC50) was determined as 293 nM and the “Caspase Activity Ratio” value amounted to 6.7.

Regarding `COC(=O)Nc1ccc(N(C)c2nc(C)nc3ccccc23)cc1` [Example 4, (2-Methyl-quinazolin-4-yl)-(4-methoxycarbonylamino-phenyl)-methylamine], the concentration giving a half-maximal response (EC50) was found to be 73 nM and the “Caspase Activity Ratio” value was 8.5.

As to `COc1ccc(N(C)c2nc(C)nc3ccc(N(C)C)cc23)cc1` [Example 30, (6-Dimethylamino-2-methyl-quinazolin-4-yl)-(4-methoxy-phenyl)-methylamine], the EC50 was 382 nM and the “Caspase Activity Ratio” value was found to be 6.4.

As to `Cc1nc(N(C)c2ccc(NC(N)=O)cc2)c2ccccc2n1` [Example 5, (2-Methyl-quinazolin-4-yl)-(4-ureido-phenyl)-methylamine], the half-maximal effective concentration (EC50) was 32 nM and the “Caspase Activity Ratio” value is 9.3.

As for `COc1c(Br)cc(N(C)c2nc(C)nc3cc([N+](=O)[O-])ccc23)cc1Br` [Example 2, (3,5-Dibromo-4-methoxyphenyl)-(2-methyl-7-nitroquinazolin-4-yl)-methylamine], the concentration giving a half-maximal response (EC50) was more than 10000 nM and the “Caspase Activity Ratio” value is on record as 1.1.

As for `COc1cc(Nc2nc(C)nc3ccccc23)cc(OC)c1OC` [Example 38, (2-Methyl-quinazolin-4-yl)-(3,4,5-trimethoxy-phenyl)-amine], the EC50 is more than 10000 nM and the “Caspase Activity Ratio” value was 0.9.

`CNc1nc(N(C)c2ccc(N(C)C)cc2)c2ccccc2n1` [Example 15, (2-Methylamino-quinazolin-4-yl)-(4-dimethylaminophenyl)-methylamine]: the EC50 was determined as 39 nM and the “Caspase Activity Ratio” value was determined as 3.9.

For `COc1ccc(N(C)c2nc(N(C)C)nc3ccc([N+](=O)[O-])cc23)cc1` [Example 14, (2-Dimethylamino-6-nitroquinazolin-4-yl)-(4-methoxyphenyl)-methylamine], the half-maximal effective concentration (EC50) is 2360 nM and the “Caspase Activity Ratio” value was 4.2.

With `CC(=O)N(C)c1nc(N(C)c2ccc(N(C)C)cc2)c2ccccc2n1` [Example 16, [2-(N-Methyl-acetamido)-quinazolin-4-yl]-(4-dimethylaminophenyl)-methylamine], the EC50 came to 14 nM and the “Caspase Activity Ratio” value amounted to 2.4.

As to `COC(=O)N(C)c1ccc(N(C)c2nc(C)nc3ccccc23)cc1` [Example 8, (2-Methyl-quinazolin-4-yl)-[4-(N-methyl-methoxycarbonylamino)-phenyl]-methylamine], the EC50 amounted to 558 nM and the “Caspase Activity Ratio” value was 8.0.

In the case of `Cc1nc(N(C)c2ccc3c(c2)nnn3C)c2ccccc2n1` [Example 23, (1-Methyl-1H-benzotriazol-5-yl)-(2-methyl-quinazolin-4-yl)-methylamine], the concentration giving a half-maximal response (EC50) was more than 10000 nM and the “Caspase Activity Ratio” value amounted to 1.1.

As for `CSc1ccc(Nc2nc(C)nc3ccccc23)cc1` [Example 20, (4-Methylthio-phenyl)-(2-methyl-quinazolin-4-yl)-amine], the 50% effective concentration (EC50) was more than 10000 nM and the “Caspase Activity Ratio” value was 1.1.

On to `CC(=O)N(C)c1ccc(N(C)c2nc(C)nc3ccccc23)cc1` [Example 6, (2-Methyl-quinazolin-4-yl)-(N-methyl-4-acetamido-phenyl)-methylamine], for which the concentration giving a half-maximal response (EC50) was found to be 210 nM and the “Caspase Activity Ratio” value was found to be 9.2.

Take `COc1ccc(N(C)c2nc(C)nc3ccc(NC(C)=O)cc23)cc1` [Example 31, (6-Acetamido-2-methyl-quinazolin-4-yl)-(4-methoxy-phenyl)-methylamine]: the EC50 amounted to 796 nM and the “Caspase Activity Ratio” value came to 3.2.

As to `CNc1nc(N(C)c2ccc(OC)cc2)c2cc([N+](=O)[O-])ccc2n1` [Example 17, (2-Methylamino-6-nitroquinazolin-4-yl)-(4-methoxyphenyl)-methylamine], the 50% effective concentration (EC50) came out at 619 nM and the “Caspase Activity Ratio” value was 3.7.

Take `COc1ccc(N(C)c2nc(NC(C)=O)nc3ccccc23)cc1` [Example 41, (2-Acetamido-quinazolin-4-yl)-(4-methoxy-phenyl)-methylamine]: the concentration giving a half-maximal response (EC50) was found to be 27 nM and the “Caspase Activity Ratio” value came to 3.5.
